Experimental findings from patent US8895585B2, “Nicotinamide derivative or salt thereof” (FUJIFILM Corporation, priority 2010, dated 2014) are described below.

The subject of one test is THP-1 cells. Briefly: TNFα generation assay. The format is cell-based, human. To be noted: Table 22, read-out: IC50 in TNFα generation assay. Summed up: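 THP-1 cells differentiated to macrophage-like cells with 10 ng/ml IFN-γ for 2 days, preincubated with compound 30 min at room temperature, then cultured 7 h on plates coated with human IgG (10 μg/ml). Secreted TNFα measured by ELISA or AlphaLISA.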

The target in test [1] is T1, glutathione S-transferase (GST)-fused full-length human Syk protein (Homo sapiens, UniProt P43405).
T1 construct: (GST)-fused full-length human Syk protein; GST (glutathione S-transferase); purchased Carna Biosciences
The test can be described thus: Syk enzyme assay. The test is classed as biochemical. To be noted: Syk enzyme assay, Test Example 1; read-out: IC50 of Syk-inhibitory activity. An outline of the steps:
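IC50 values come from a time-resolved FRET readout (615 and 665 nm) of substrate phosphorylation, measured after an EDTA stop and 1 h antibody binding. The kinase reaction ran 40 min at room temperature with 27 μM ATP and 0.4 μM biotin-peptide, following a 15 min compound preincubation with baculovirus-made GST-full-length human Syk.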

Where [2] appears, read: Homo sapiens, THP-1, THP-1 cells.

Read-outs that look alike come from different tables or passages of the source.

As for `Cn1cnc2cc(Nc3nc(N[C@@H]4CCCC[C@@H]4N)c(F)cc3C(N)=O)cnc21` [Example 004-027], the IC50 in the test with THP-1 cells (setting [2]) lay within 130 to 200 nM; in test [1], 10 to 50 nM.
For `CCN(CC)CCn1ccc2c(Nc3nc(N[C@@H]4CCCC[C@@H]4N)c(F)cc3C(N)=O)ccnc21` [Example 004-028] the same measures were 65 to 130 nM and under 10 nM.
On to `NC(=O)c1cc(F)c(N[C@@H]2CCCC[C@@H]2N)nc1Nc1ccnc2c1ccn2CCN1CCCCC1` [Example 004-029], for which the results for the IC50 (in the test on THP-1 cells (setting [2]); in test [1]) were 130 to 200 nM and under 10 nM, respectively.
As to `CN(C)CCCn1ccc2c(Nc3nc(N[C@@H]4CCCC[C@@H]4N)c(F)cc3C(N)=O)ccnc21` [Example 004-030], the IC50 with THP-1 cells (setting [2]) is 130 to 200 nM; in test [1], under 10 nM.
For `CN(C)c1cccc2cc(Nc3nc(N[C@@H]4CCCC[C@@H]4N)c(F)cc3C(N)=O)cnc12` [Example 004-032], the values for the IC50 (in the test with THP-1 cells (setting [2]); in test [1]) were 130 to 200 nM and under 10 nM, respectively.
Regarding `NC(=O)c1cc(F)c(N[C@@H]2CCCC[C@@H]2N)nc1Nc1cnc2c(N3CCOCC3)cccc2c1` [Example 004-033], the IC50 in the test with THP-1 cells (setting [2]) is 130 to 200 nM; in test [1], under 10 nM.
Regarding `COCCn1ccc2c(Nc3nc(N[C@@H]4CCCC[C@@H]4N)c(F)cc3C(N)=O)ccnc21` [Example 004-035], the IC50 with THP-1 cells (setting [2]) was 130 to 200 nM; in test [1], under 10 nM.
As to `CC(C)Cn1ccc2c(Nc3nc(N[C@@H]4CCCC[C@@H]4N)c(F)cc3C(N)=O)ccnc21` [Example 004-036], the IC50 in the test on THP-1 cells (setting [2]) is 65 to 130 nM; in test [1], under 10 nM.
For `NC(=O)c1cc(F)c(N[C@@H]2CCCC[C@@H]2N)nc1Nc1ccnc2c1ccn2C1CC1` [Example 004-037], the IC50 is 65 to 130 nM with THP-1 cells (setting [2]) and under 10 nM in test [1].
For `NC(=O)c1cc(F)c(N[C@@H]2CCCC[C@@H]2N)nc1Nc1ccnc2c1ccn2CC(F)(F)F` [Example 004-039], the IC50 in the test on THP-1 cells (setting [2]) was 130 to 200 nM; in test [1], under 10 nM.
Take `NC(=O)c1cc(F)c(N[C@@H]2CCCC[C@@H]2N)nc1Nc1ccnc2c1ccn2CC1CC1` [Example 004-040]: the IC50 with THP-1 cells (setting [2]) was 130 to 200 nM; in test [1] it was under 10 nM.
For the compound `NC(=O)c1cc(F)c(N[C@@H]2CCCC[C@@H]2N)nc1Nc1cncc(-n2ccnn2)c1` [Example 004-043], the IC50 lay within 65 to 130 nM with THP-1 cells (setting [2]) and 100 to 1000 nM in test [1].
With `Cn1ccc2c(Nc3nc(N[C@H](Cc4ccccc4)C(N)=O)c(F)cc3C(N)=O)ccnc21` [Example 004-044], the figures for the IC50 (in the test with THP-1 cells (setting [2]); in test [1]) were 130 to 200 nM and under 10 nM, respectively.
Consider `NC(=O)c1cc(F)c(N[C@H](Cc2ccccc2)C(N)=O)nc1Nc1ccnc2c1ccn2CC1CC1` [Example 004-046], for which the IC50 is 130 to 200 nM in the test with THP-1 cells (setting [2]) and under 10 nM in test [1].
In the case of `NC(=O)c1cc(F)c(N[C@@H]2CCCC[C@@H]2N)nc1Nc1cncc(-c2cccnc2)c1` [Example 004-103], the values for the IC50 (with THP-1 cells (setting [2]); in test [1]) were 65 to 130 nM and 10 to 50 nM, respectively.
On to `NC(=O)c1cc(F)c(N[C@@H]2CCCC[C@@H]2N)nc1Nc1cncc(-c2ccncc2)c1` [Example 004-104], for which the values for the IC50 (in the test with THP-1 cells (setting [2]); in test [1]) were 130 to 200 nM and 10 to 50 nM, respectively.
As to `NC(=O)c1cc(F)c(N[C@@H]2CCCC[C@@H]2N)nc1Nc1cncc(-c2ccccn2)c1` [Example 004-106], the IC50 is 130 to 200 nM with THP-1 cells (setting [2]) and under 10 nM in test [1].
For the compound `NC(=O)c1cc(F)c(N[C@@H]2CCCC[C@@H]2N)nc1Nc1cnc2c(NCC3CC3)cccc2c1` [Example 004-134], the IC50 in the test with THP-1 cells (setting [2]) was in the range of 130 to 200 nM; in test [1] it was 10 to 50 nM.
`NC(=O)c1cc(F)c(N[C@@H]2CCCC[C@@H]2N)nc1Nc1cnc2c(c1)OCO2` [Example 004-160]: the IC50 in the test with THP-1 cells (setting [2]) fell in the range of 130 to 200 nM; in test [1] it was 10 to 50 nM.
In the case of `COCCn1ncc2cc(Nc3nc(N[C@@H]4CCCC[C@@H]4N)c(F)cc3C(N)=O)ccc21` [Example 004-172, 6-((1R,2S)-2-aminocyclohexylamino)-5-fluoro-2-((1-(2-methoxyethyl)-1H-indazol-5-yl)-amino)nicotinamide], the IC50 in the test on THP-1 cells (THP-1 cells) is 65 to 130 nM; in test [1], under 10 nM.
